The nature of data set [1]: Hepatic metabolism: stability in mouse liver microsomes. Format: in vitro ADME. The settings on record: for Stability (2 h, with MLM): percentage remaining relative to t0, mouse liver microsomes, SEM, n ≥ 2; for Stability (2 h, no MLM): percentage remaining, microsomes replaced with PBS.
In another data set the test system is U87 GBM cell line. The data set can be described thus: Cell viability assay (Alamar Blue, 7 days), U87. Format: cell-based, human. As for the experimental part:
(§1) Cell Culture and Reagents. All cell lines were grown in a 37° C., 5% CO2, humidified environment, in media containing 1% penicillin/streptomycin. Stable cell line generation of GL261 MGMT+ was purchased from Creative Biogene. Cell culture conditions are as follows: cell lines U87, T98G, and RKO were grown in EMEM with 10% FBS. D54, GL261, GL261 MGMT+, and U118MG cell lines were grown in DMEM with 10% FBS. HCT116 cells were grown in RMPI with 10% FBS. D341 Med cells were grown in EMEM with 20% FBS. Temozolomide (TMZ) was purchased from AK Scientific. TMZ analogues were synthesized as described below. Compounds were dissolved in DMSO (1% final concentration, Fisher Chemical) for cell culture studies.
(§2) Cell Viability Assays. Cells were harvested, seeded in a 96-well plate and allowed to adhere. After three hours, compound was added to each well in DMSO (1% final concentration). Cells were incubated for seven days (unless otherwise noted) before viability was assessed by the Alamar Blue assay. Raptinal (20 μM) was used as a dead control.
Plated 1500 c/w for GL261; 600 c/w for U87; 600 c/w for U118MG; 1500 c/w for GL261 MGMT+ Incubated ovn and added 1 μL of compound in DMSO the next day. Incubated over 7 days; added Alamar Blue to assess cell viability and used 10 μM Raptinal as dead control. Error is SEM, n=3.
(In general: The colour change of resazurin is a common sign of viable cells or microbes.)

A further data set has as its system T98G GBM cell line. The data set can be described thus: Cell viability assay (Alamar Blue, 7 days), T98G. The class given is cell-based, human. As for the experimental part: as §1, §2
The subject of data set [2] is linearized pBR322 plasmid DNA. Particulars: purified linearized DNA, 15 hours at 37° C.
Excerpt: The DNA was subsequently denatured and the sample was eluted on a 1% agarose gel. Interstrand DNA cross-linkers like cisplatin prevent the full denaturation of double-stranded DNA, while DNA alkylating agents like MMS or TMZ cause DNA streaking due to shorter DNA fragments that are formed upon alkaline denaturation of abundantly alkylated DNA.
Procedure was adapted from Healy et al. (61) In brief, pBR322 plasmid DNA was linearized with EcoRI (New England BioLabs) in NEB EcoRI buffer (New England BioLabs) according to the manufacturer's instructions. The cut plasmid DNA was purified using a PCR cleanup kit (QIAquick PCR Purification Kit, Qiagen) and eluted into DNA buffer (10 mM Tris Cl, pH 8.5). The concentration of linearized DNA was quantified by measuring absorbance on a NanoDrop 2000 UV-Vis Spectrophotometer (Thermo Fisher). For each reaction, compound (in DMSO, 5% v/v) was added to DNA (150 ng) in DNA buffer (total volume 10 L) and incubated at 37° C. for the indicated time. Upon completion, 30 L DNA denaturation buffer (60 mg/mL sucrose, 10 mg/mL NaOH, and 0.4 mg/mL bromophenol blue in water) was added to each sample (the same buffer without NaOH was added to non-denatured controls). […] Gels were imaged using a Gel Dox XR+ system (Bio-Rad).
Data set [3] concerns expanded panel of GBM cell lines with or without MGMT expression. Briefly: Cell viability in expanded panel of GBM cell lines. Format: cell-based. Particulars: 168 h; all cell lines, with or without MGMT; 7 days; read-out: IC50 values across expanded panel of GBM cell lines. As for the experimental part: FIG. 1A-C. Selection and evaluation of MGMT-independent imidazotetrazines. (A) IC50 values (M, 7 days) of TMZ and compound 10 in an expanded panel of GBM cell lines. Cell viability was assessed via the Alamar Blue assay, n≥3, error is SEM. (B) Hydrolytic stability of TMZ at pH 7, 7.4, and 8. Percentage of prodrug remaining was quantified by HPLC, n≥2. (C) Hydrolytic stability of compound 10 at pH 7, 7.4, and 8. Percentage of prodrug remaining was quantified by HPLC, n≥2.
FIG. 2A-F. (A) 7 day IC50 values (M) of compound 10 and CPZ in an expanded panel of GBM cell lines. Cell viability was assessed via the Alamar Blue assay, n≥3, error is SEM. (B-E) 7 day dose-response curves of TMZ and CPZ in cell lines with variable MGMT and MMR status. Error is SEM, n≥3. (F) Killing kinetics of CPZ compared to TMZ in the U87 cell line. Cells were treated with compound once and viability was assessed every 24 hours via Alamar Blue assay. Error is SEM, n≥2.
as §2

A short description of data set [4]: Hydrolytic stability studies. Format: physicochemical. Particulars: PBS; for half-life at 100 μM: 37° C.; for Hydrolytic stability: percentage of prodrug remaining after 2 hours: pH 7.4, 37° C., HPLC. As for the experimental part: Hydrolytic Stability Studies. Compound (100 μM) was incubated at 37° C. in PBS at pH 7.4 (unless otherwise noted). At the indicated time point, an aliquot was collected and analyzed by HPLC. Compound peaks were integrated and compared to the integration at to calculate the percentage of prodrug remaining.

The next data set is described as follows: in vivo. Particulars: CD-1 IGS, mouse, brain and serum, iv, 25 mg/kg.
[5] abbreviates: Homo sapiens, 168 h, MGMT (−), Alamar Blue, error SEM, n ≥ 3, read-out: Seven-day IC50, U87.
Where [6] appears, read: Homo sapiens, T98G, 168 h, MGMT (+), Alamar Blue, error SEM, n ≥ 3, read-out: Seven-day IC50, T98G.
[7] abbreviates: MGMT (+), Alamar Blue, error SEM, n ≥ 3, read-out: Seven-day IC50, T98G.
Where [8] appears, read: Homo sapiens, 168 h, MGMT (−) MMR (+), 600 c/w, SEM, n=3, read-out: Activity, U87.
Where [9] appears, read: Homo sapiens, T98G, 168 h, MGMT (+) MMR (+), read-out: Activity, T98G.

The source of these data is patent publication US20250129083A1, “IMIDAZOTETRAZINE COMPOUNDS AND TREATMENT OF TMZ-RESISTANT CANCERS” (THE BOARD OF TRUSTEES OF THE UNIVERSITY OF ILLINOIS, priority 2022, published 2025).

Where two headings read alike, the source gives them in different places. Where only a bound is given, the exact number is not on record here.

Description for in vivo: Biodistribution and Toxicity Studies. […] Brain tissue and blood were collected from each mouse and immediately acidified to prevent prodrug degradation. The concentration of each compound in the serum (FIG. 4A) and brain (FIG. 4B) were quantified by LC-MS/MS.
CD-1 IGS mice were administered compound in 5% DMSO, 10% Tween-20, and 85% SPE-PCD in sterile water (30% w/v) at 25 mg/kg via lateral tail vein injection. Fifteen minutes post injection, mice were sacrificed and blood was collected by lacerating the right auricle with iris scissors. An 18 gauge angiocatheter was inserted through the left ventricle, and all residual circulatory volume was removed by perfusing 0.9% saline solution via an analog peristaltic pump. Blood samples were immediately centrifuged at 13,000 rcf for five minutes and the supernatant collected and acidified with 8.5% aqueous H3PO4. Brains were harvested from the cranial vault, acidified with 0.3% aqueous H3PO4 and flash frozen. Homogenized brain samples were centrifuged twice at 13,000 rcf for ten minutes and supernatant and tissue debris were separated. The resultant supernatant was analyzed, along with plasma, by LC-MS/MS to determine compound concentrations.

Take `CC#CCn1nnc2c(C(N)=O)ncn2c1=O` [But]: in data set [1], the “Stability (2 h, with MLM)” value turned out to be 89 ± 3% and the “Stability (2 h, no MLM)” value is listed as 85 ± 1%.

As for `NC(=O)c1ncn2c(=O)[nH]nnc12` [Compound 1, 4-oxo-3,4-dihydroimidazo[5,1-d][1,2,3,5]tetrazine-8-carboxamide], the IC50 in the data set with U87 GBM cell line (setting [5]) and with T98G GBM cell line (setting [6]) was above 1000 µM each time.

Turning to `CCn1nnc2c(C(N)=O)ncn2c1=O` [Compound 2, 3-ethyl-4-oxo-3,4-dihydroimidazo[5,1-d][1,2,3,5]tetrazine-8-carboxamide], the IC50 in the data set on U87 GBM cell line (setting [5]) was 470 µM; in the data set with T98G GBM cell line (setting [6]), above 1000 µM.

With `CCCn1nnc2c(C(N)=O)ncn2c1=O` [Compound 3, 4-oxo-3-propyl-3,4-dihydroimidazo[5,1-d][1,2,3,5]tetrazine-8-carboxamide], the IC50 in the data set with U87 GBM cell line (setting [5]) and in the data set with T98G GBM cell line (setting [6]) was above 1000 µM throughout. In data set [2], the “DNA alkylation (streaking on gel)” value is “No evidence of DNA alkylation”.

As to `CC(C)n1nnc2c(C(N)=O)ncn2c1=O` [Compound 4, 3-isopropyl-4-oxo-3,4-dihydroimidazo[5,1-d][1,2,3,5]tetrazine-8-carboxamide], the IC50 in the data set with U87 GBM cell line (setting [5]) and with T98G GBM cell line (setting [6]) was above 1000 µM each time.

In the case of `CC(C)(C)n1nnc2c(C(N)=O)ncn2c1=O` [Compound 5, 3-(tert-butyl)-4-oxo-3,4-dihydroimidazo[5,1-d][1,2,3,5]tetrazine-8-carboxamide], the values for the IC50 in the data set with U87 GBM cell line (setting [5]) and in the data set on T98G GBM cell line (setting [6]) were 570 ± 30 µM and above 1000 µM, respectively.

`CC(C)(C)Cn1nnc2c(C(N)=O)ncn2c1=O` [Compound 6, 3-neopentyl-4-oxo-3,4-dihydroimidazo[5,1-d][1,2,3,5]tetrazine-8-carboxamide]: the IC50 in the data set on U87 GBM cell line (setting [5]) and in the data set on T98G GBM cell line (setting [6]) was above 1000 µM throughout.

`COc1ccc(-n2nnc3c(C(N)=O)ncn3c2=O)cc1` [Compound 7, 3-(4-methoxyphenyl)-4-oxo-3,4-dihydroimidazo[5,1-d][1,2,3,S]tetrazine-8-carboxamide]: the IC50 in the data set with T98G GBM cell line (setting [6]) is below 100 µM; in the data set on T98G GBM cell line (setting [7]), 60 ± 10 µM.

Regarding `C=CCn1nnc2c(C(N)=O)ncn2c1=O` [Compound 9, 3-allyl-4-oxo-3,4-dihydroimidazo[5,1-d][1,2,3,5]tetrazine-8-carboxamide], the IC50 turned out to be 220 ± 60 µM in the data set on U87 GBM cell line (setting [5]) and 320 ± 10 µM in the data set with T98G GBM cell line (setting [6]). In addition, in data set [2], the “DNA alkylation (streaking on gel)” value was “No evidence of DNA alkylation”.

Consider `C#CCn1nnc2c(C(N)=O)ncn2c1=O` [Compound 10, 4-oxo-3-(prop-2-yn-1-yl)-3,4-dihydroimidazo[5,1-d][1,2,3,5]tetrazine-8-carboxamide], for which the IC50 with U87 GBM cell line (setting [5]) is 29 µM; in data set [3], below 100 µM; with T98G GBM cell line (setting [6]), 77 µM. Also, the half-life at 100 μM is 97 ± 5 min in data set [4] (pH 7, calculated from hydrolytic stability data, read-out: Half-life, pH 7); around 30 min in data set [4] (pH 7.4, calculated from hydrolytic stability data, read-out: Half-life, pH 7.4); 15 ± 1 min in data set [4] (pH 8, calculated from hydrolytic stability data, read-out: Half-life, pH 8). In addition, the “Hydrolytic stability: percentage of prodrug remaining after 2 hours” value in data set [4] stood at 8%. The Kp at 15 min in “in vivo” was 0.06 ± 0.01.

On to `NC(=O)c1ncn2c(=O)n(COc3ccccc3)nnc12` [Compound 11, 4-oxo-3-(phenoxymethyl)-3,4-dihydroimidazo[5,1-d][1,2,3,5]tetrazine-8-carboxamide], for which the IC50 with U87 GBM cell line (setting [5]) is below 40 µM; with U87 GBM cell line (MGMT (−), Alamar Blue, error SEM, n ≥ 3, read-out: Seven-day IC50, U87), 21 ± 3 µM; in the data set on T98G GBM cell line (setting [6]), below 40 µM; in the data set on T98G GBM cell line (setting [7]), 35 ± 1 µM.

In the case of `NC(=O)c1ncn2c(=O)n(CNC(=O)c3ccccc3)nnc12` [Compound 12, 3-(benzamidomethyl)-4-oxo-3,4-dihydroimidazo[5,1-d][1,2,3,5]tetrazine-8-carboxamide], the IC50 with U87 GBM cell line (setting [5]) worked out at 240 ± 20 µM; in the data set on T98G GBM cell line (setting [6]) it was 580 ± 100 µM.

As to `C#CCn1nnc2c(C(=O)NC)ncn2c1=O` [Compound 16, N-methyl-4-oxo-3-(prop-2-yn-1-yl)-3,4-dihydroimidazo[5,1-d][1,2,3,5]tetrazine-8-carboxamide], the IC50 was 40 ± 20 µM in the data set with U87 GBM cell line (setting [8]) and 87 ± 7 µM in the data set with T98G GBM cell line (setting [9]). In addition, in data set [4], the “Hydrolytic stability: percentage of prodrug remaining after 2 hours” value is reported as 18%.

In the case of `C#CCn1nnc2c(C(=O)N(C)C)ncn2c1=O` [Compound 17, N,N-dimethyl-4-oxo-3-(prop-2-yn-1-yl)-3,4-dihydroimidazo[5,1-d][1,2,3,5]tetrazine-8-carboxamide], the IC50 is 20 ± 5 µM in the data set with U87 GBM cell line (setting [8]) and 40 ± 5 µM with T98G GBM cell line (setting [9]). Also, in data set [4], the “Hydrolytic stability: percentage of prodrug remaining after 2 hours” value was 27%.

Take `CC#CCn1nnc2c(C(N)=O)ncn2c1=O` [Compound 19, 3-(but-2-yn-1-yl)-4-oxo-3,4-dihydroimidazo[5,1-d][1,2,3,5]tetrazine-8-carboxamide]: the IC50 in the data set with U87 GBM cell line (setting [5]) came to 37 µM. In data set [2], the “DNA alkylation (streaking on gel)” value is “Trace DNA alkylation” and the DNA interstrand cross-linking entry is reported as “definitively absent”. Further, the IC50 with T98G GBM cell line (setting [6]) was found to be 110 µM.

With `NC(=O)c1ncn2c(=O)n(CCCl)nnc12` [MTZ, 3-(2-chloroethyl)-4-oxo-3,4-dihydroimidazo[5,1-d][1,2,3,5]tetrazine-8-carboxamide, reference compound], the IC50 in the data set on U87 GBM cell line (setting [5]) was found to be 30 µM; in the data set on T98G GBM cell line (setting [6]), 85 ± 9 µM.

`CN(C)C(=O)c1ncn2c(=O)n(C)nnc12` [N,N-DiMe-TMZ, reference compound]: in data set [1], the “Stability (2 h, with MLM)” value is 81 ± 2% and the “Stability (2 h, no MLM)” value worked out at 92 ± 3%.

`C=CC=O` [acrolein, reference compound]: in data set [2], the “DNA alkylation (streaking on gel)” value is “no evidence of alkylation” and the DNA interstrand cross-linking result is given as “interstrand cross-linking”.

In general, half-life refers to how long it takes for the measured level to halve. What is called Kp is the ratio of the level in a tissue or fluid to that in plasma or blood.
